Data reported in ChEMBL document CHEMBL3045592, “Studies of O,O-dimethyl α-(2,4-dichlorophenoxyacetoxy)ethylphosphonate (HW02) as a new herbicide. 1. Synthesis and herbicidal activity of HW02 and analogues as novel inhibitors of pyruvate dehydrogenase complex” (J Agric Food Chem, 2011).

Columns and labels:
Assay type in all cases: functional
Echinochloa crus-galli [1] = test: Pre-emergence herbicidal activity against Echinochloa crus-galli (barnyard grass) assessed as growth inhibition at 1500 ai g/ha after 20 days by green house test
Medicago sativa [2] = test: Post-emergence herbicidal activity against Medicago sativa (alfalfa) assessed as growth inhibition at 1500 ai g/ha after 20 days by green house test
[3] = system: Brassica rapa subsp. oleifera; test: Pre-emergence herbicidal activity against Brassica rapa subsp. oleifera Si Yue Man assessed as growth inhibition at 1500 ai g/ha after 20 days by green house test
Echinochloa crus-galli [4] = test: Post-emergence herbicidal activity against Echinochloa crus-galli (barnyard grass) assessed as growth inhibition at 1500 ai g/ha after 20 days by green house test
Medicago sativa [5] = test: Pre-emergence herbicidal activity against Medicago sativa (alfalfa) assessed as growth inhibition at 1500 ai g/ha after 20 days by green house test
Amaranthus retroflexus [6] = test: Pre-emergence herbicidal activity against Amaranthus retroflexus assessed as growth inhibition at 1500 ai g/ha after 20 days by green house test
Digitaria sanguinalis [7] = test: Post-emergence herbicidal activity against Digitaria sanguinalis (hairy crabgrass) assessed as growth inhibition at 1500 ai g/ha after 20 days by green house test
[8] = system: Brassica rapa subsp. oleifera; test: Post-emergence herbicidal activity against Brassica rapa subsp. oleifera Si Yue Man assessed as growth inhibition at 1500 ai g/ha after 20 days by green house test
Digitaria sanguinalis [9] = test: Pre-emergence herbicidal activity against Digitaria sanguinalis (hairy crabgrass) assessed as growth inhibition at 1500 ai g/ha after 20 days by green house test
Amaranthus retroflexus [10] = test: Post-emergence herbicidal activity against Amaranthus retroflexus assessed as growth inhibition at 1500 ai g/ha after 20 days by green house test

Compound	growth inhibition (GI) (Echinochloa crus-galli [1])	growth inhibition (GI) (Medicago sativa [2])	growth inhibition (GI) [3]	growth inhibition (GI) (Echinochloa crus-galli [4])	growth inhibition (GI) (Medicago sativa [5])	growth inhibition (GI) (Amaranthus retroflexus [6])	growth inhibition (GI) (Digitaria sanguinalis [7])	growth inhibition (GI) [8]	growth inhibition (GI) (Digitaria sanguinalis [9])	growth inhibition (GI) (Amaranthus retroflexus [10])
COP(=O)(OC)C(OC(=O)COc1ccccc1[N+](=O)[O-])c1ccccc1 (stereo not given)	<=50%	<=50%	<=50%	<=50%	<=50%	<=50%	<=50%	<=50%	<=50%	<=50%
COP(=O)(OC)C(OC(=O)COc1cccc(C)c1)c1ccccc1 (stereo not given)	<=50%	50%	75%	<=50%	75%	75%	<=50%	50%	<=50%	50%
COP(=O)(OC)C(OC(=O)COc1ccc(F)c(Cl)c1)c1cccc([N+](=O)[O-])c1 (stereo not given)	50%	50%	<=50%	50%	50%	50%	75%	50%	<=50%	75%
COP(=O)(OC)C(C)OC(=O)COc1cccc(C)c1C (stereo not given)	75%	50%	90%	50%	75%	75%	<=50%	75%	<=50%	50%
COP(=O)(OC)C(OC(=O)COc1ccc(C(F)(F)F)cc1)c1ccccc1 (stereo not given)	<=50%	<=50%	<=50%	<=50%	<=50%	<=50%	<=50%	<=50%	<=50%	<=50%
COP(=O)(OC)C(OC(=O)COc1ccc(Cl)c(C)c1)c1cccc([N+](=O)[O-])c1 (stereo not given)	<=50%	75%	50%	<=50%	75%	75%	<=50%	<=50%	50%	75%
COP(=O)(OC)C(C)OC(=O)COc1ccc(F)cc1F (stereo not given)	<=50%	50%	<=50%	<=50%	50%	<=50%	50%	75%	75%	75%
COP(=O)(COC(=O)COc1ccc(C(F)(F)F)cc1)OC	<=50%	<=50%	<=50%	<=50%	<=50%	<=50%	<=50%	<=50%	<=50%	75%
COP(=O)(OC)C(C)OC(=O)COc1ccc(F)cc1Cl (stereo not given)	90%	90%	90%	75%	90%	90%	75%	90%	90%	90%
COP(=O)(OC)C(OC(=O)COc1ccc(F)cc1F)c1ccccc1 (stereo not given)	75%	<=50%	<=50%	<=50%	50%	50%	<=50%	<=50%	<=50%	90%
COP(=O)(OC)C(OC(=O)COc1ccc(Cl)cc1)c1cccc([N+](=O)[O-])c1 (stereo not given)	90%	75%	90%	75%	90%	90%	50%	75%	90%	75%
